What all share (assay type): cell-based
In assay [1] the test system is human monocyte-derived macrophages. The experiment in a line: TNF-α secretion of monocyte-derived macrophages stimulated with peptides (ELISA). The procedure: (§1) Peripheral blood mononuclear cells were isolated from leukocytes in the blood of healthy donors by Ficoll Hypaque.
(§2) Monocytes were isolated from the peripheral blood mononuclear cells by using Human MACS CD14 Isolation Kit.
(§3) Monocytes (2×10^6 cells/mL) were seeded in a 6-well plate containing 2 mL fresh complete medium and cultured at 5% CO2, 37° C. for 6 days. The medium was changed every 2-3 days to make the monocytes differentiate to macrophages.
2. Detection of TNF-α Secretion of Monocyte-Derived Macrophages Stimulated with Peptides
Peptides were added to respective wells of a culturing plate to stimulate macrophages for 48 hours. Macrophages not stimulated were used as a blank group.
2.2.1 TNF-α secreted from macrophages to the supernatant of the culture was detected by a human TNF-α kit.
2.2.2 Absorbance of the supernatant of the culture at 450-540 nm was detected by a SpectraMax M5 microplate reader. Detection limitation of this ELISA kit to TNF-α is about […].
In general terms: An ELISA detects its analyte on a solid surface through an enzyme-linked reagent.

Assay [2] has as its system human umbilical vein endothelial cells (HUVEC). The experiment in a line: MCP-1 secretion of human umbilical vein endothelial cells HUVECs stimulated with peptides (ELISA). To be noted: Peptide 6 660 and 165 μg/ml, IL-6 200 and 50 ng/ml, FIG. 2A. The procedure:
(§4) 3. Detections of MCP-1 Secretion of Human Umbilical Vein Endothelial Cells HUVECs and Human Monocyte-Derived Macrophages Stimulated with Peptides
(§5) Peptides were added to respective wells of a culturing plate to stimulate HUVECs for 24-48 hours, or to stimulate macrophages for 48 hours. In the experiment for macrophages, macrophages not stimulated were used as a blank group.
(§6) 3.2.1 MCP-1 respectively secreted from HUVECs and macrophages to the supernatant of the culture was detected by a […].
(§7) 3.2.2 Absorbance of the supernatant of the culture at 450-540 nm was detected by a SpectraMax M5 microplate reader. Detection limitation of this ELISA kit to MCP-1 is about […].

Assay [3] deals with human monocyte-derived macrophages. Description: MCP-1 secretion of human monocyte-derived macrophages stimulated with peptides (ELISA). The procedure:
as §1, §2, §3, §4, §5, §6, §7

In assay [4] the test system is human keratinocyte cell line HaCaT. Description: Cell migration analysis of human keratinocyte cell line HaCaT stimulated with peptides (scratch). Conditions: compared to control group; concentrations of 300 μg/ml, 660 μg/ml and 1000 μg/ml; 18 hour; FIG. 3A, 3B. The procedure: 4. Cell Migration Analysis of Human Keratinocyte Cell Line HaCaT Stimulated with Peptides
4.1 Each well of a 12-well culturing plate was coated with 100 μg/ml of collagen (in 0.02N acetic acid) (0.5 ml/well).
4.2 The culturing plate was placed at 37° C. for 1 hour, and then was washed with Dulbecco's phosphate buffered saline (DPBS) one time.
4.3 HaCaT cells were seeded in the culturing plate with DMEM containing serum (5×10^5 cells/well), and the final serum concentration for each well was 10%.
4.4 The cells were cultured in a condition of 5% CO2, 37° C.
4.5 The medium was replaced with DMEM containing 0.6% serum for serum starvation and culture the cells overnight.
4.6 The bottom of the well of the culturing plate was scraped with 1000 μl tips, and the culturing plate was washed with Dulbecco's phosphate buffered saline twice.
4.7 The cells and peptides were cultured in DMEM containing 0.6% serum. HaCaT cells not stimulated with peptides or growth factors were used as a control group.
4.8 Photographs were taken at 0 hour and 18 hour.
4.9. The photographs were analyzed by Celllmage Comp software, and the migration distances for cells were calculated.

The test system is the same in assay [5]. The experiment in a line: MMP9 secretion of human keratinocyte cell line HaCaT stimulated with peptides (ELISA). Conditions: 48 hours; peptides 1.5, 1 and 0.5 mg/ml vs IL-6 1000 and 100 ng/ml; FIG. 9. The procedure:
5. Detection of MMP9 Secretion of Human Keratinocyte Cell Line HaCaT Stimulated with Peptides
Peptides were added to respective wells of a culturing plate to stimulate HaCaT cells for 48 hours. HaCaT cells not stimulated were used as a blank group.
5.2.1 MMP9 secreted from HaCaT cells to the supernatant of the culture was detected by a MMP9 kit (R&D systems, Human MMP-9 DuoSet ELISA (DY911)).
5.2.2 Absorbance of the supernatant of the culture at 450-540 nm was detected by a SpectraMax M5 microplate reader. Detection limitation of this ELISA kit to MMP9 is about […].

Setting [6] is: macrophages of Donor 4, 48 hours, peptides up to 250 μg/ml, IL-6 100 ng/ml and 50 ng/ml, FIG. 7.
The mark [7] stands for this setting: macrophages of Donor 5, 48 hours, peptides 50 μg/ml, IL-6 200 ng/ml, FIG. 12.
The mark [8] stands for this setting: macrophages of Donors 1-3, 48 hours, Peptide 6 up to 1000 μg/ml, IL-6 50 ng/ml, FIG. 1A-1C.
The mark [9] stands for this setting: macrophages of Donors 1-3, 48 hours, Peptide 6 125-1000 μg/ml, IL-6 5-200 ng/ml, FIG. 2B-2D.
[10] abbreviates: macrophages of Donor 4, 48 hours, peptides 50 ng/ml-250 μg/ml vs IL-6 100 and 50 ng/ml, FIG. 8.
Setting [11] is: macrophages of Donor 5, 48 hours, peptides 50 μg/ml vs IL-6 200 ng/ml, FIG. 13.

Where no end group is shown, it is not given here. [ ]: non-standard residue; d: D form.

For the substance “IL-6: interleukin; mature form has the sequence of SEQ ID NO. 1; comparator”, the results for the “TNF-α secretion of macrophages” value in assay [1] (setting [6]), in assay [1] (setting [7]) and in assay [1] (setting [8]) were “a great quantity of TNF-α”, “a great quantity of TNF-α” and “can induce macrophages to secrete TNF-α”, respectively. Besides, the “MCP-1 secretion of HUVECs” value in assay [2] is listed as “a lower quantity of MCP-1”. For the same substance, in assay [3] (setting [9]), the “MCP-1 secretion of macrophages” value is “a lower quantity of MCP-1”.

Turning to “Peptide 6: IL-6-derived peptide, sequence SEQ ID NO. 6, corresponds to amino acids of positions 102 to 129 of mature form IL-6 (NRFESSEEQARAVQMSTKVLIQFLQKKA)”, the “TNF-α secretion of macrophages” value in assay [1] (setting [6]) is reported as “a low level of TNF-α”; in assay [1] (setting [7]), “almost do not induce TNF-α secretion”; in assay [1] (setting [8]), “does not induce macrophages to secrete TNF-α”. The “cell migration of HaCaT” value in assay [4] is “can promote cell migration”. In addition, the “MMP9 secretion of HaCaT” value in assay [5] is recorded as “a higher level of MMP9 secretion than IL-6”. In addition, the “MCP-1 secretion of HUVECs” value in assay [2] was “a great quantity of MCP-1”. Also, the “MCP-1 secretion of macrophages” value is “a higher level of MCP-1 secretion than IL-6” in assay [3] (setting [10]), “a higher level of MCP-1 secretion than IL-6” in assay [3] (setting [11]) and “a great quantity of MCP-1” in assay [3] (setting [9]).

In the case of “6M14: short form peptide of Peptide 6, sequence SEQ ID NO. 3 (EQARAVQMSTKVLI) [Peptide 6M14]”, the “TNF-α secretion of macrophages” value in assay [1] (setting [7]) is listed as “almost do not induce TNF-α secretion”. Further, in assay [3] (setting [11]), the “MCP-1 secretion of macrophages” value is “a higher level of MCP-1 secretion than IL-6”.

Regarding “ITRI-2: isoform of Peptide 6 (SEQ ID NO. 6) with one D-form amino acid: valine at position 13 (NRFESSEEQARA[dV]QMSTKVLIQFLQKKA)”, in assay [1] (setting [6]), the “TNF-α secretion of macrophages” value is “a low level of TNF-α”. Moreover, in assay [5], the “MMP9 secretion of HaCaT” value is “a higher level of MMP9 secretion than IL-6”. Moreover, in assay [3] (setting [10]), the “MCP-1 secretion of macrophages” value was “a higher level of MCP-1 secretion than IL-6”.

The record behind these values is patent US20180201662A1, “PEPTIDE FOR PROMOTING CELL MIGRATION AND/OR SKIN WOUND HEALING, PHARMACEUTICAL COMPOSITION CONTAINING THE SAME, AND APPLICATION THEREOF” (Industrial Technology Research Institute, priority 2016, published 2018).
